Here are results for three molecules from PMC4607889, “Modular Design of the Selectivity Filter Pore Loop in a Novel Family of Prokaryotic ‘Inward Rectifier’ (NirBac) channels” (Scientific Reports, 2015).

One may read the stoichiometry N as the number of molecules, sites or subunits per partner or assembly.

In one test the target is T1, NirBac1.1 (Anaeromyxobacter dehalogenans, UniProt Q2IH88).
T1 sequence (Q2IH88 1-305): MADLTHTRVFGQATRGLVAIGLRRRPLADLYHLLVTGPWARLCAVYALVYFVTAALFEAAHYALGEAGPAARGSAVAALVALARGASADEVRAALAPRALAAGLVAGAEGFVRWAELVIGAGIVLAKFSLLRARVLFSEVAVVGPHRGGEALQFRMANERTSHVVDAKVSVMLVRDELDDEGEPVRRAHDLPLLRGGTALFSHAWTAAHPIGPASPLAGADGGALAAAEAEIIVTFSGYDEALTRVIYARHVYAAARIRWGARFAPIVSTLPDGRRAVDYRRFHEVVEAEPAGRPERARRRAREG
Description: […]+ uptake into proteoliposomes. Format: biochemical. The settings on record: POPG as part of liposome lipid, 25% vs 50% of total; Na+ driven; activator.

In another test the target is T2, NirBac1.2 (Anaeromyxobacter sp. Fw109-5, UniProt A7HIG5).
T2 sequence (A7HIG5 1-299): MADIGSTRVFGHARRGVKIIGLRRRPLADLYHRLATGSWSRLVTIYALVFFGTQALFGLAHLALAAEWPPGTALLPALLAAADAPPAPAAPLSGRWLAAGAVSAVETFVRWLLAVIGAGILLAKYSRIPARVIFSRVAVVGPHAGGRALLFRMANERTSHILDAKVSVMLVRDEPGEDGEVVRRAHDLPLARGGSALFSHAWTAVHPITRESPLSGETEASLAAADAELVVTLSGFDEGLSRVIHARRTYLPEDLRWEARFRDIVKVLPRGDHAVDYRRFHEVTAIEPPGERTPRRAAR
Description: […]+ uptake into proteoliposomes. It counts as biochemical. The settings on record: POPG as part of liposome lipid, 25% vs 50% of total; Na+ driven; activator.

Test [1] addresses NirBac1.1 (Anaeromyxobacter dehalogenans 2CP-C). Briefly: SEC + native gel or EMSA; purified channel in detergent, non-denaturing conditions; Superdex200; oligomeric state (Supplementary Figure S2B,C).
Test [2] concerns the target NirBac1.2 (Anaeromyxobacter sp. Fw109-5). Described as above.

Take `CCCCCCCC/C=C\CCCCCCCC(=O)O[C@H](COC(=O)CCCCCCCCCCCCCCC)COP(=O)(O)OCC(O)CO` (stereo partly shown) [POPG]: the “fold flux increase, 25% to 50% POPG” value at NirBac1.1 and on NirBac1.2 was over 5 fold in each case.

Consider NirBac1.1 (natural protein), for which the stoichiometry N in test [1] is 4.

Turning to NirBac1.2 (natural protein), the stoichiometry N in test [2] was 4.
